Molecular target: T1, PcSRB (rPcSRB)
T1 construct: recombinant, pET-32a(+) BamHI/XhoI, His-tagged, tag kept
Experiment: microscale thermophoresis, RED-tris-NTA labelled protein
Assay type: binding, Procambarus clarkii
Conditions: PBS-T; His-tagged protein labelled, ligand unlabelled

Kd: 4.5 µM
SMILES: CC(C)CCC[C@@H](C)[C@H]1CC[C@H]2[C@@H]3CC=C4C=CCC[C@]4(C)[C@H]3CC[C@]12C [CD3,5, cholesta-3,5-diene]
